As usually defined, the inhibition is how much of the control response was suppressed.

The target of one assay is T1, P2X7 receptor (Homo sapiens, UniProt Q99572).
T1 construct: host or cells: THP-1 cells differentiated with LPS and IFN-γ
T1 sequence (Q99572 1-595): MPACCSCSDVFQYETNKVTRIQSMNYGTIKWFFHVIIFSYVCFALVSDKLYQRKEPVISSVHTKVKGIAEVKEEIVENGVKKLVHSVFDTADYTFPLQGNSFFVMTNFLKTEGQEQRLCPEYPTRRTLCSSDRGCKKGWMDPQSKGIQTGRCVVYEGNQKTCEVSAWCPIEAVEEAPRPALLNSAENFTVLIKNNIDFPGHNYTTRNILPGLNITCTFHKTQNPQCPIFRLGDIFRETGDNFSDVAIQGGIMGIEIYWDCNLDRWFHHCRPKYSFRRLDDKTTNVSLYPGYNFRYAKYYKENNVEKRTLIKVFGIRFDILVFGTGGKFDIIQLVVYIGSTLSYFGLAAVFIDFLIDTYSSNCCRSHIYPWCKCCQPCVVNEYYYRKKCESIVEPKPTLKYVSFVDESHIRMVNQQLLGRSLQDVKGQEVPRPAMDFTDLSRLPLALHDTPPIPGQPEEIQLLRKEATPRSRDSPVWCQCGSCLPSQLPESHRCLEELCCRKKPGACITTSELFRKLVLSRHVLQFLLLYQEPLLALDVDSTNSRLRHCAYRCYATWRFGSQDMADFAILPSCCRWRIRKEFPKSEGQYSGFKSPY
As to the kind of experiment: IL-1β release assay (BzATP-stimulated, LPS/IFN-γ differentiated THP-1 cells, ELISA). Type of assay: cell-based. The conditions noted are these: at 0.1 μM (asterisk symbols). Here is the method:
THP-1 cells (ATCC Cat # 285-IF-100) are plated in 96 well plates at a concentration of 200,000 cells per well and allowed to differentiate in RPMI-1640 media (ATCC Cat # 30-2001) containing 10% FBS, 100 IU/mL penicillin, 100 ug/mL streptomycin, 100 ng/mL LPS and 100 ng/mL IFN-γ for 16 hours. Following differentiation, the cells are treated for an additional 2 hours in RPMI-1640 media containing 100 IU/mL penicillin, 100 ug/mL streptomycin and fresh LPS at 100 ng/mL. The cells are then pretreated for 30 minutes with the compound of interest at the appropriate concentration in RPMI media containing 100 IU/mL penicillin, 100 ug/mL streptomycin. Following the pretreatment 2′,3′-O-(4-benzoylbenzoyl)-adenosine 5′-triphosphate (Sigma Aldrich Cat# B6396) is added to a final concentration of 250 uM and the cells incubated for an additional 45 minutes. 30 uL of cell supernatant is then collected and […] levels determined via ELISA (R&D systems Cat. # HSLB50) according to manufacturer's recommendations using the Tecan Safire plate reader. Background adjusted IL-1β levels of drug treated and non-treated cells are used to calculate the percent inhibition.
(In an ELISA, binding on a coated surface is turned into a signal by an enzyme label.)
Turning to `CC12CC3CC(C)(C1)CC(CC(=O)Nc1cccc4c(=O)n(CCc5ccccn5)ccc14)(C3)C2` [Compound 752], the inhibition at 0.1 µM is 50 to 75%.

The assay is the same for the next values; noted with them: at 0.3 μM (plus symbols).
`O=C(CC12CC3CC(CC(C3)C1)C2)Nc1cccc2c(=O)n(Cc3ccccc3)ccc12` [Compound 701, 2-adamantan-1-yl-N-(2-benzyl-1-oxo-1,2-dihydro-isoquinolin-5-yl)-acetamide]: the inhibition at 0.3 µM is not below 75%.

Regarding `O=C(CC12CC3CC(CC(C3)C1)C2)Nc1cccc2c(=O)n(Cc3ccc(F)cc3)ccc12` [Compound 703, 2-Adamantan-1-yl-N-[2-(4-fluoro-benzyl)-1-oxo-1,2-dihydro-isoquinolin-5-yl]-acetamide], the inhibition at 0.3 µM was not below 75%. On to `O=C(CC12CC3CC(CC(C3)C1)C2)Nc1cccc2c1CCN(Cc1ccc(F)cc1)C2=O` [Compound 704], for which the inhibition at 0.3 µM is not below 75%. As to `O=C(CC12CC3CC(CC(C3)C1)C2)Nc1cccc2c(=O)n(Cc3ccc(F)cc3F)ccc12` [Compound 705], the inhibition at 0.3 µM was not below 75%. Regarding `O=C(CC12CC3CC(CC(C3)C1)C2)Nc1cccc2c(=O)n(Cc3ccccc3F)ccc12` [Compound 706], the inhibition at 0.3 µM was not below 75%. In the case of `O=C(CC12CC3CC(CC(C3)C1)C2)Nc1cccc2c(=O)n(Cc3ccccc3Cl)ccc12` [Compound 708], the inhibition at 0.3 µM was not below 75%. Still for that read-out and setting: then `Cc1cnc(Cn2ccc3c(NC(=O)CC45CC6CC(CC(C6)C4)C5)cccc3c2=O)cn1` [Compound 710], with not below 75%; and `CC(c1ccccc1)n1ccc2c(NC(=O)CC34CC5CC(CC(C5)C3)C4)cccc2c1=O` (stereo not drawn) [Compound 711], with not below 75%; and `O=C(CC12CC3CC(CC(C3)C1)C2)Nc1cccc2c(=O)n(Cc3ccco3)ccc12` [Compound 712], with not below 75%.

Consider `O=C(CC12CC3CC(CC(C3)C1)C2)Nc1cccc2c(=O)n(Cc3ccc(C(F)(F)F)cc3)ccc12` [Compound 713], for which the inhibition at 0.3 µM is not below 75%. Consider `O=C(CC12CC3CC(CC(C3)C1)C2)Nc1cccc2c(=O)n(Cc3ccccn3)ccc12` [Compound 714], for which the inhibition at 0.3 µM is not below 75%.

In the case of `O=C(CC12CC3CC(CC(C3)C1)C2)Nc1cccc2c(=O)n(Cc3cccnc3)ccc12` [Compound 715], the inhibition at 0.3 µM was not below 75%. In the case of `O=C(CC12CC3CC(CC(C3)C1)C2)Nc1cccc2c(=O)n(Cc3ccncc3)ccc12` [Compound 716], the inhibition at 0.3 µM was not below 75%. The same measure, in the same setting: the result for `Cc1nn(C)c(C)c1Cn1ccc2c(NC(=O)CC34CC5CC(CC(C5)C3)C4)cccc2c1=O` [Compound 718] reads not below 75%; that for `Cc1cc(Cn2ccc3c(NC(=O)CC45CC6CC(CC(C6)C4)C5)cccc3c2=O)nn1C` [Compound 719], 25 to 50%; that for `C[C@@H](c1ccccc1)n1ccc2c(NC(=O)CC34CC5CC(CC(C5)C3)C4)cccc2c1=O` [Compound 720], not below 75%.

For the compound `C[C@H](c1ccccc1)n1ccc2c(NC(=O)CC34CC5CC(CC(C5)C3)C4)cccc2c1=O` [Compound 721], the inhibition at 0.3 µM was not below 75%.

Regarding `O=C(CC12CC3CC(CC(C3)C1)C2)Nc1cccc2c(=O)n(Cc3c(F)cccc3Cl)ccc12` [Compound 722], the inhibition at 0.3 µM was not below 75%. With `Cc1ccccc1Cn1ccc2c(NC(=O)CC34CC5CC(CC(C5)C3)C4)cccc2c1=O` [Compound 723], the inhibition at 0.3 µM is not below 75%. On the same count and under the same terms, the result for `O=C(CC12CC3CC(CC(C3)C1)C2)Nc1cccc2c(=O)n(CC3COCCO3)ccc12` (stereo not drawn) [Compound 724] reads not below 75%; that for `O=C(CC12CC3CC(CC(C3)C1)C2)Nc1cccc2c1CCN(Cc1ccc(F)cc1F)C2=O` [Compound 725, 2-Adamantan-1-yl-N-[2-(2,4-difluoro-benzyl)-1-oxo-1,2,3,4-tetrahydro-isoquinolin-5-yl]-acetamide], not below 75%; that for `O=C(CC12CC3CC(CC(C3)C1)C2)Nc1cccc2c1CCN(CC1CCCO1)C2=O` (stereo not drawn) [Compound 726], not below 75%. The same measure, in the same setting: the result for `O=C(CC12CC3CC(CC(C3)C1)C2)Nc1cccc2c1CCN(Cc1cccnc1)C2=O` [Compound 728] reads not below 75%; that for `Cc1nn(C)c(C)c1CN1CCc2c(NC(=O)CC34CC5CC(CC(C5)C3)C4)cccc2C1=O` [Compound 729], not below 75%; that for `O=C(CC12CC3CC(CC(C3)C1)C2)Nc1cccc2c1CCN(Cc1ccco1)C2=O` [Compound 730], not below 75%. For the compound `CC(c1ccccc1)N1CCc2c(NC(=O)CC34CC5CC(CC(C5)C3)C4)cccc2C1=O` (stereo not drawn) [Compound 731], the inhibition at 0.3 µM was not below 75%. For the compound `Cc1cnc(CN2CCc3c(NC(=O)CC45CC6CC(CC(C6)C4)C5)cccc3C2=O)cn1` [Compound 732], the inhibition at 0.3 µM is not below 75%. As for `O=C(CC12CC3CC(CC(C3)C1)C2)Nc1cccc2c(=O)n(Cc3c(F)cccc3F)ccc12` [Compound 733], the inhibition at 0.3 µM was not below 75%. `O=C(CC12CC3CC(CC(C3)C1)C2)Nc1cccc2c(=O)n(CC3COc4ccccc4O3)ccc12` (stereo not drawn) [Compound 734]: the inhibition at 0.3 µM was not below 75%. With `O=C(CC12CC3CC(CC(C3)C1)C2)Nc1cccc2c(=O)n(Cc3ccc(F)c(F)c3)ccc12` [Compound 735], the inhibition at 0.3 µM is not below 75%.

As to `CN(C)CCn1ccc2c(NC(=O)CC34CC5CC(CC(C5)C3)C4)cccc2c1=O` [Compound 736], the inhibition at 0.3 µM was not below 75%.

Turning to `Cc1cc(Cn2ccc3c(NC(=O)CC45CC6CC(CC(C6)C4)C5)cccc3c2=O)no1` [Compound 737], the inhibition at 0.3 µM was not below 75%. On to `Cc1nn(-c2ccccc2)nc1Cn1ccc2c(NC(=O)CC34CC5CC(CC(C5)C3)C4)cccc2c1=O` [Compound 738], for which the inhibition at 0.3 µM was not below 75%. For `O=C(CC12CC3CC(CC(C3)C1)C2)Nc1cccc2c(=O)n(C[C@@H]3CCCO3)ccc12` [Compound 739], the inhibition at 0.3 µM was not below 75%. On to `CC12CC3CC(C)(C1)CC(CC(=O)Nc1cccc4c(=O)n(CCc5c[nH]cn5)ccc14)(C3)C2` [Compound 741], for which the inhibition at 0.3 µM is not below 75%. In the case of `CC(c1ccccc1)n1ccc2c(NC(=O)CC34CC5CC(C)(CC(C)(C5)C3)C4)cccc2c1=O` (stereo not drawn) [Compound 742], the inhibition at 0.3 µM was not below 75%. As for `CC12CC3CC(C)(C1)CC(CC(=O)Nc1cccc4c(=O)n(Cc5ccccc5F)ccc14)(C3)C2` [Compound 743], the inhibition at 0.3 µM is not below 75%. Same read-out and setting: the result for `CC12CC3CC(C)(C1)CC(CC(=O)Nc1cccc4c(=O)n(Cc5ccccn5)ccc14)(C3)C2` [Compound 744] reads not below 75%; that for `Cc1cc(Cn2ccc3c(NC(=O)CC45CC6CC(C)(CC(C)(C6)C4)C5)cccc3c2=O)nn1C` [Compound 745], not below 75%; that for `CN1CCC(Cn2ccc3c(NC(=O)CC45CC6CC(C)(CC(C)(C6)C4)C5)cccc3c2=O)CC1` [Compound 746], not below 75%.

For the compound `CN(C)c1ccc(Cn2ccc3c(NC(=O)CC45CC6CC(CC(C6)C4)C5)cccc3c2=O)cc1` [Compound 747], the inhibition at 0.3 µM was not below 75%. `CC(C)(C)OC(=O)N1CCC(Cn2ccc3c(NC(=O)CC45CC6CC(CC(C6)C4)C5)cccc3c2=O)CC1` [Compound 748]: the inhibition at 0.3 µM is not below 75%.

Take `O=C(CC12CC3CC(CC(C3)C1)C2)Nc1cccc2c(=O)n(CC3CCNCC3)ccc12` [Compound 749]: the inhibition at 0.3 µM was not below 75%. `CCN1CCCC1Cn1ccc2c(NC(=O)CC34CC5CC(CC(C5)C3)C4)cccc2c1=O` (stereo not drawn) [Compound 750]: the inhibition at 0.3 µM is not below 75%.

The values above are taken from patent US20090170838A1, “Bicycloheteroaryl compounds as P2X7 modulators and uses thereof” (Renovis, Inc., priority 2005, published 2009).
